Broadly, the IC50 is the concentration that inhibits the measured activity by half.

This note sets out measurements from US10570156B2, “Substituted imidazo[1,2-a]pyridines as PDE-10 inhibitors” (SUNOVION PHARMACEUTICALS INC., priority 2011, dated 2020).

The target in this experiment is recombinant human PDE-10 enzyme (Homo sapiens (Human), UniProt Q9Y233). Kind of experiment: human PDE-10 inhibition assay (IMAP PDE Fluorescence Polarization enzyme assay). In kind it is biochemical. Conditions: Fluorescein-labeled cAMP/cGMP substrate, 40-minute incubation at 37° C. As for the experimental part:
In one embodiment, the compounds provided herein were assayed for their ability to inhibit human PDE-10A. In one embodiment, the activities of the compounds were determined using the Molecular Devices IMAP PDE Fluorescence Polarization assay using recombinant human PDE-10 enzyme expressed in a baculoviral system. Briefly, 10 μL of a compound (0.2 nM-20 μM) was added to either a 96-well half area black plate or a 384-well black plate along with 10 μL of Fluorescein-labeled cAMP/cGMP substrate as per manufacturer's instructions and 10 μL of PDE enzyme (activity 0.1 U). Following a 40-minute incubation at 37° C., 60 μL of IMAP binding reagent was added. The plate was then read on a Perkin Elmer Victor (480-535 nm). The data was analyzed using Prism Software (GraphPad Inc, San Diego, Calif.).

Sequence of recombinant human PDE-10 enzyme (Q9Y233 whole entry): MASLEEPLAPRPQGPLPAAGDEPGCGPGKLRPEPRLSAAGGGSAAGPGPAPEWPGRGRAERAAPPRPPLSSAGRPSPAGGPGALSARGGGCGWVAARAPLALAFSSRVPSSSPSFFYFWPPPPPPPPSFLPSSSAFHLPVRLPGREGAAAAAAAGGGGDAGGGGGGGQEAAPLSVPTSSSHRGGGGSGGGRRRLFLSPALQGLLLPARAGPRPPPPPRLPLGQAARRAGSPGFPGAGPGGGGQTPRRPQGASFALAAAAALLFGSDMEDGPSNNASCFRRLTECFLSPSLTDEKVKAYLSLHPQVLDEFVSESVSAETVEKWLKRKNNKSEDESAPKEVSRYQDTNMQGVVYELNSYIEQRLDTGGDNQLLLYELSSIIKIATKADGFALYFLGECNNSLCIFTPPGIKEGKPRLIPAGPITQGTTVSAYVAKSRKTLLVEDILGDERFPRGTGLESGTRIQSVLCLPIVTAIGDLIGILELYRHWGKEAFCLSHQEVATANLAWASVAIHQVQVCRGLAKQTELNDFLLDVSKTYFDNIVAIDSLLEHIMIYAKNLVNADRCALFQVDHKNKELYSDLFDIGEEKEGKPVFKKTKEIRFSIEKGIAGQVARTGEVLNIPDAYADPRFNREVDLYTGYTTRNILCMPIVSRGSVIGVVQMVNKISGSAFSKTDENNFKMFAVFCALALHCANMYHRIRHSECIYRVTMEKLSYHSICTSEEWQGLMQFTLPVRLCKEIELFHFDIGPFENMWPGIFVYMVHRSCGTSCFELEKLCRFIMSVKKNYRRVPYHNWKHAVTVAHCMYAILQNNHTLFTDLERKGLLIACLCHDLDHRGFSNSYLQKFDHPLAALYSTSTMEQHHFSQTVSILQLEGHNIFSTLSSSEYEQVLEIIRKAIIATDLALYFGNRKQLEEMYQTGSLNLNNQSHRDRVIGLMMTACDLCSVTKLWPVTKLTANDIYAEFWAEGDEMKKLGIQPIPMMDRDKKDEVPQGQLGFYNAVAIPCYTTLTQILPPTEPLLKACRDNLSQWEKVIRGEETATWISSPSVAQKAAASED

Regarding `Cc1ncc(C)n2nc(CCc3nc4c(C)ncc(C)n4n3)nc12` [Compound 2], the IC50 is above 0.5 µM.
